Laboratory results published in PMC7775851 (Journal of Pharmaceutical Analysis, 2019).

Columns and labels:
CYP3A = settings: cited from earlier work
[1] = Stability of ilaprazole racemate stock solution; type: physicochemical; settings: stock solution in acetonitrile, −80 °C for 15 days

Q: Which Metabolizing enzyme (CYP3A) does the source give for `COc1ccnc(C[S+]([O-])c2nc3cc(-n4cccc4)ccc3[nH]2)c1C` (racemic) [ilaprazole racemate, ilaprazole] here?
A: mainly metabolized by CYP3A

Q: What about the “Stability of stock solution (in words)” value [1] of the same molecule?
A: stable
